The results in this text go back to ChEMBL document CHEMBL1681755, “Antiviral agents 3. Discovery of a novel small molecule non-nucleoside inhibitor of hepatitis B virus (HBV)” (Bioorg Med Chem Lett, 2011).

A value given as a limit tells only on which side of the number the result lay.

Experiment [1] is described as follows: Cytotoxicity against human HepG2(2.2.15) cells by neutral red dye uptake assay. The format is functional.
Experiment [2] relates to Hepatitis B virus. Nature of the experiment: Antiviral activity against Hepatitis B virus infected in human HepG2(2.2.15) cells assessed as reduction in viral DNA by Southern blotting. It is filed as functional, organism-based.
Another experiment deals with Huh-7. Put plainly: Cytotoxicity against human HuH7 cells after 4 days by neutral red dye uptake assay. It is filed as functional. As to conditions: Huh-7, 96 h.
A further experiment relates to HepG2. Put plainly: Cytotoxicity against human HepG2 cells after 3 days by neutral red dye uptake assay. It is filed as functional. As to conditions: HepG2, 72 h.
In experiment [3] the test system is Hepatitis B virus. Put plainly: Antiviral activity against Hepatitis B virus infected in human Huh7 cells assessed as reduction in viral DNA after 4 days by Southern blotting. As to conditions: Huh-7, 96 h.
Experiment [4] relates to Hepatitis B virus. Nature of the experiment: Antiviral activity against Hepatitis B virus infected in human HepG2 cells assessed as reduction in viral DNA after 3 days by Southern blotting. It is filed as functional, organism-based. As to conditions: HepG2, 72 h.

For the compound `CC1(C)C=Cc2c(ccc3c2C(=O)C(O)=C(C2=C(C4=C(O)C(=O)c5c(ccc6c5C=CC(C)(C)O6)C4=O)C(=O)c4ccccc4C2=O)C3=O)O1`, the CC50 in experiment [1] stood at 1370 µM. The EC50 in the experiment with Hepatitis B virus [2] was determined as 10 µM.
`COc1ccc2c(c1)C(=O)C(C1=C(O)C(=O)c3c(ccc4c3C=CC(C)(C)O4)C1=O)=C(C1=C(O)C(=O)c3c(ccc4c3C=CC(C)(C)O4)C1=O)C2=O` returned a CC50 in experiment [1] of 466 µM. In addition, in the experiment on Hepatitis B virus [2], the EC50 worked out at 1.5 µM.
On the same counts, the results for `CC(C)Oc1ccc2c(c1)C(=O)C(C1=C(O)C(=O)c3c(ccc4c3C=CC(C)(C)O4)C1=O)=C(C1=C(O)C(=O)c3c(ccc4c3C=CC(C)(C)O4)C1=O)C2=O` are more than 300 µM and 0.154 µM.
As for `CC1(C)C=Cc2c(ccc3c2C(=O)C(O)=C(C2=C(C4=C(O)C(=O)c5c(ccc6c5C=CC(C)(C)O6)C4=O)C(=O)c4c(ccc5c4C=CC(C)(C)O5)C2=O)C3=O)O1`, the midpoint of cytotoxicity in experiment [1], the CC50, lay at 45 µM. In addition, the EC50 in the experiment with Hepatitis B virus [2] came out at 7.9 µM.
For `CC1(C)CCc2c(ccc3c2C(=O)C(O)=C(C2=C(C4=C(O)C(=O)c5c(ccc6c5CCC(C)(C)O6)C4=O)C(=O)c4c(ccc5c4CCC(C)(C)O5)C2=O)C3=O)O1`, in that order: 44 µM and 0.096 µM.
Compound `CC1(C)C=Cc2c(ccc3c2C(=O)C(O)=C(C2=C(C4=C(O)C(=O)c5c(ccc6c5C=CC(C)(C)O6)C4=O)C(=O)c4c(ccc5c4CCC(C)(C)O5)C2=O)C3=O)O1` registered a CC50 in experiment [1] of 279 µM. Moreover, the EC50 in the experiment on Hepatitis B virus [2] amounted to 0.009 µM.
For the compound `COc1cccc2c1C(=O)C(C1=C(C3=C(O)C(=O)c4cccc(OC)c4C3=O)C(=O)c3ccccc3C1=O)=C(O)C2=O`, the CC50 in experiment [1] is more than 300 µM. Moreover, the EC50 with Hepatitis B virus [2] is more than 10 µM.
For `COc1ccc2c(c1)C(=O)C(O)=C(C1=C(C3=C(O)C(=O)c4cc(OC)ccc4C3=O)C(=O)c3ccccc3C1=O)C2=O`, in that order: 58 µM and 0.05 µM.
For `COc1cc2c(cc1OC)C(=O)C(C1=C(C3=C(O)C(=O)c4cc(OC)c(OC)cc4C3=O)C(=O)c3ccccc3C1=O)=C(O)C2=O`, in that order: more than 300 µM and 0.4 µM.
On the same counts, the results for `O=C1C(O)=C(C2=C(C3=C(O)C(=O)c4ccccc4C3=O)C(=O)c3ccccc3C2=O)C(=O)c2ccccc21` are more than 300 µM and more than 10 µM.
Take `CC(C)=CCC[C@]1(C)C=Cc2c(ccc3c2C(=O)C(O)=C(C2=C(C4=C(O)C(=O)c5c(ccc6c5C=C[C@@](C)(CCC=C(C)C)O6)C4=O)C(=O)c4ccccc4C2=O)C3=O)O1`: the CC50 in experiment [1] was found to be 14 µM. Besides, in the experiment on Hepatitis B virus [2], the EC50 was more than 10 µM.
For `CC1(C)CCc2c(ccc3c2C(=O)C(O)=C(C2=C(C4=C(O)C(=O)c5c(ccc6c5CCC(C)(C)O6)C4=O)C(=O)c4ccccc4C2=O)C3=O)O1`, in that order: 1430 µM and 3.9 µM.
On the same counts, the results for `COc1ccc2c(c1)C(=O)C(C1=C(C3=C(O)C(=O)c4ccc(OC)cc4C3=O)C(=O)c3ccccc3C1=O)=C(O)C2=O` are 295 µM and 56 µM.
In experiment [1], `COc1ccc2c(c1)C(=O)C(O)=C(C1=C(C3=C(O)C(=O)c4cc(OC)ccc4C3=O)C(=O)c3c(ccc4c3CCC(C)(C)O4)C1=O)C2=O` showed a CC50 of more than 300 µM. Moreover, the EC50 with Hepatitis B virus [2] worked out at 0.66 µM.
Take `CC1(C)C=Cc2c(ccc3c2C(=O)C=C(O)C3=O)O1`: the CC50 in experiment [1] is more than 300 µM; with Huh-7 it was more than 25 µM; in the experiment on HepG2, more than 25 µM. Further, the results for the EC50 in the experiment on Hepatitis B virus [3], in the experiment on Hepatitis B virus [2] and with Hepatitis B virus [4] were 2.5 µM, 4.3 µM and 1.9 µM, respectively.
In the case of `CC(C)=CCC[C@]1(C)C=Cc2c(ccc3c2C(=O)C(O)=C(C2=C(C4=C(O)C(=O)c5c(ccc6c5C=C[C@@](C)(CCC=C(C)C)O6)C4=O)C(=O)c4c(ccc5c4C=C[C@@](C)(CCC=C(C)C)O5)C2=O)C3=O)O1` [CONOCURVONE], the CC50 in experiment [1] was more than 100 µM. Also, the EC50 in the experiment on Hepatitis B virus [2] was more than 10 µM.
Regarding `Nc1ccn([C@@H]2CS[C@H](CO)O2)c(=O)n1` [LAMIVUDINE], the CC50 is 2130 µM in experiment [1], 0.1 µM with Huh-7 and more than 25 µM in the experiment with HepG2. Also, the EC50 was 0.1 µM in the experiment with Hepatitis B virus [3], 0.06 µM in the experiment with Hepatitis B virus [2] and more than 2.5 µM with Hepatitis B virus [4].
Take `Nc1nc(O)c2ncn(CCC(CO)CO)c2n1` [PENCICLOVIR]: the CC50 in experiment [1] is 552 µM. For the same compound, the EC50 with Hepatitis B virus [2] is 3.4 µM.
